Reference: patent US7354935B2, “Radiolabeled neurokinin-1 receptor antagonists” (Merck & Co. Inc., priority 2002, dated 2008)

Key:
[1] = Percent of parent tracer remaining in monkey plasma (plasma half-life comparison, TLC/gamma counting); type: in vivo, rhesus monkey; details: for % parent tracer remaining in monkey plasma / Amount of tracer remaining in plasma relative to the protonated tracer: rhesus monkey; for Amount of tracer remaining in plasma relative to the protonated tracer: versus Compound A
Experimental: To compare the plasma half-life of [^18F][2-fluoromethoxy-5-(5-trifluoromethyl-tetrazol-1-yl)-benzyl]-([2S,3S]-2-phenyl-piperidin-3-yl)-amine (Compound A) and [^18F][2-fluorodideuteromethoxy-5-(5-trifluoromethyl-tetrazol-1-yl)-benzyl]-([2S,3S]-2-phenyl-piperidin-3-yl)-amine (Compound B) in rhesus monkey, ˜5 mCi of each radiotracer (in saline) was injected by iv into an anesthetized monkey. At various time points, whole blood was drawn, mixed with 0.02 mL of acetonitrile and centrifuged for 3-5 minutes at 5000 rpm. A 0.02 mL aliquot of the acetonitrile extract was spotted on a 5×7 cm TLC plate along with the cold standard and developed using 60:40:0.1 ethyl acetate:methanol:triethylamine. The TLC plate was cut into four sections pertaining to the origin, to determine the amount of fluoride present, the section between the origin and where the standard eluted, to determine polar metabolites, the section where the parent compound eluted, to determine the amount of parent compound remaining, and the area between the parent compound and the solvent front for nonpolar metabolites. The TLC strips were then counted in a gamma counter to determine the number of counts for each section of TLC plate. The percentage of the total counts that were due to the remaining parent compound was determined. […] With the higher prolonged plasma levels of the deuterated tracer, more time is available for a larger specific signal to develop, and for the tracer to accumulate in brain regions that have a low receptor concentration and could be difficult to image using the protonated tracer.

NK1 receptor = molecular target: T1, NK1 receptor (Macaca mulatta, UniProt F7GQV6); assay: Chase study with an unlabelled NK1 antagonist, PET regions of interest (chaseability); type: in vivo, rhesus monkey; details: for Remaining Specific Binding in Rhesus Monkey after 1 mpk Chase at 180 Minutes with an NK1 Antagonist: striatum minus cerebellum
T1 construct: from tissue; host or cells: brain (striatum and other regions) of a living rhesus monkey, PET imaging
T1 sequence (F7GQV6 1-407): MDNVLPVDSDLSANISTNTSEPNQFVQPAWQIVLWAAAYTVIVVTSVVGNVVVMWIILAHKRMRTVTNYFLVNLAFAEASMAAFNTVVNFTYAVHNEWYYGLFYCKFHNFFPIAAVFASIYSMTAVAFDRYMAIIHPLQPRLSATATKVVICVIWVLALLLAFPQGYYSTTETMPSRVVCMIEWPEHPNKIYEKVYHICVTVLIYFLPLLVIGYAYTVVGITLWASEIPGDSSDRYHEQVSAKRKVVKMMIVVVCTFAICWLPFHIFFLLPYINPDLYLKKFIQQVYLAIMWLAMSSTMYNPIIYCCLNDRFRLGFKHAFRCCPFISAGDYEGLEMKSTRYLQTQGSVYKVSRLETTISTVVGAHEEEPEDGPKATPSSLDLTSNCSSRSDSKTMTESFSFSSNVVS
Experimental: A bolus of an unlabelled NK1 antagonist was administered 180 minutes after a bolus injection of either tracer. From the resulting images, regions of interest were drawn to determine the amount of radioactivity present in different brain regions. […] Also, using the 70% level of chase as a comparison (30% remaining specific binding), the fluoroethoxy compound reaches this level ˜50 minutes before the dideuterofluoromethoxy analog reaches this same level. Because the fluoroethoxy compound [^18F][2-fluoroethoxy-5-(5-trifluoromethyl-tetrazol-1-yl)-benzyl]-([2S,3S]-2-phenyl-piperidin-3-yl)-amine chases from the striatum faster than the fluoromethoxy analog, a more accurate picture of what the true receptor occupancy is can be obtained using the fluoroethoxy analog.

[2] = Brain levels of the tracer; type: in vivo; details: comparison in words
[3] = 5 minutes after iv injection of ~5 mCi
[4] = 15 minutes after iv injection of ~5 mCi
[5] = 30 minutes after iv injection of ~5 mCi
[6] = 45 minutes after iv injection of ~5 mCi
[7] = 60 minutes after iv injection of ~5 mCi
[8] = 120 minutes after iv injection of ~5 mCi
[9] = 180 minutes after iv injection of ~5 mCi

% parent tracer remaining in monkey plasma [1, 3] [%] | % parent tracer remaining in monkey plasma [1, 4] [%] | % parent tracer remaining in monkey plasma [1, 5] [%] | % parent tracer remaining in monkey plasma [1, 6] [%] | % parent tracer remaining in monkey plasma [1, 7] [%] | % parent tracer remaining in monkey plasma [1, 8] [%] | % parent tracer remaining in monkey plasma [1, 9] [%] | Metabolic stability relative to the [18F]fluoromethoxy compound of U.S. Pat. No. 6,241,964 ([1]; comparison in words) | Plasma half-life relative to the [18F]fluoromethoxy compound of U.S. Pat. No. 6,241,964 ([1]; comparison in words) | Amount of tracer remaining in plasma relative to the protonated tracer ([1]; end of the experiment (3 hours)) | Remaining Specific Binding in Rhesus Monkey after 1 mpk Chase at 180 Minutes with an NK1 Antagonist (NK1 receptor; 230 minutes after tracer) [%] | Remaining Specific Binding in Rhesus Monkey after 1 mpk Chase at 180 Minutes with an NK1 Antagonist (NK1 receptor; 270 minutes after tracer) [%] | Brain levels of the tracer relative to the [18F]fluoromethoxy compound [2] | Displacement from the NK1 receptor when unlabelled compounds are administered, relative to the [18F]fluoromethoxy compound (NK1 receptor; comparison in words) | Compound | Amount of tracer remaining in plasma relative to the protonated tracer ([1]; all time points examined) | Remaining Specific Binding in Rhesus Monkey after 1 mpk Chase at 180 Minutes with an NK1 Antagonist (NK1 receptor; 195 minutes after tracer) [%] | Remaining Specific Binding in Rhesus Monkey after 1 mpk Chase at 180 Minutes with an NK1 Antagonist (NK1 receptor; 205 minutes after tracer) [%] | Time at which tracer begins to chase (is displaced from the receptor) after administration of the unlabelled antagonist (NK1 receptor; striatum, rhesus monkey) | Remaining Specific Binding in Rhesus Monkey after 1 mpk Chase at 180 Minutes with an NK1 Antagonist (NK1 receptor; 220 minutes after tracer) [%] | Time by which the 70% level of chase (30% remaining specific binding) is reached before the dideuterofluoromethoxy analog (NK1 receptor; striatum, rhesus monkey, versus Compound B) [minutes]
72 | 55 | 38 | 35 | 25 | 16 | 9 | – | – | – | – | – | – | – | FC(F)(F)c1nnnn1-c1ccc(OC[18F])c(CN[C@H]2CCCN[C@H]2c2ccccc2)c1 [Compound A, [^18F][2-fluoromethoxy-5-(5-trifluoromethyl-tetrazol-1-yl)-benzyl]-([2S,3S]-2-phenyl-piperidin-3-yl)-amine, reference compound] | – | – | – | – | – | –
91 | 87 | 75 | 39 | 41 | 23 | 20 | metabolically more stable | longer plasma half-life | twice as much | ~55 | ~30 | relatively higher brain levels | – | [2H]C([2H])([18F])Oc1ccc(-n2nnnc2C(F)(F)F)cc1CN[C@H]1CCCN[C@H]1c1ccccc1 [Compound B, [^18F][2-fluorodideuteromethoxy-5-(5-trifluoromethyl-tetrazol-1-yl)-benzyl]-([2S,3S]-2-phenyl-piperidin-3-yl)-amine] | more of the deuterated tracer remaining in the plasma than the protonated tracer | ~96 | ~85 | about 30 minutes | – | –
– | – | – | – | – | – | – | – | – | – | – | – | – | – | FC(F)(F)c1nnnn1-c1ccc(OCC[18F])c(CN[C@H]2CCCN[C@H]2c2ccccc2)c1 [Compound C, [^18F][2-fluoroethoxy-5-(5-trifluoromethyl-tetrazol-1-yl)-benzyl]-([2S,3S]-2-phenyl-piperidin-3-yl)-amine] | – | ~85 | ~55 | almost immediately | ~30 | ~50
– | – | – | – | – | – | – | – | – | – | – | – | – | faster | [^18F][2-fluoroethoxy-5-(5-trifluoromethyl-tetrazol-1-yl)-benzyl]-([2S,3S]-2-phenyl-piperidin-3-yl)-amine [Compound C] | – | – | – | – | – | –
